According to ChEMBL document CHEMBL3045068, “Effect of methomyl and oxamyl soil applications on early control of nematodes and insects” (Pest Manag Sci, 2011):
In brackets after ≈: the same amount, converted by molar mass.

What was measured:
Aphis gossypii [1] = assay: Insecticidal activity against Aphis gossypii (cotton aphid) infested cotton assessed as mortality applied to soil after 5 days; assay type: functional
Phaseolus lunatus [2] = assay: Phytotoxicity in Phaseolus lunatus (lima bean) root assessed as root dry weight at 0.56 kg ai/ha applied to soil under green house conditions (reference value: 0.36 +/- 0.071 g); assay type: organism-based; conditions: in vivo, other
Solanum lycopersicum = assay: Phytotoxicity in Solanum lycopersicum (tomato) assessed as foliar edge burn at 200 ug/mL applied through foliar spray after 5 weeks; assay type: organism-based; conditions: in vivo, other, 840 h
Gossypium hirsutum = assay: Phytotoxicity in Gossypium hirsutum (cotton) assessed as concentration required to cause foliar edge burn applied to soil after 4 weeks; assay type: organism-based; conditions: in vivo, other, 672 h
Aphis gossypii [3] = assay: Insecticidal activity against Aphis gossypii (cotton aphid) infested cotton assessed as mortality applied through foliar spray after 5 days; assay type: functional
Meloidogyne incognita [4] = assay: Nematicidal activity against second juvenile stage of Meloidogyne incognita (root-knot nematode) infected pea plant assessed as root dry weight at 4 kg ai/ha applied to soil measured up to 7 days post planting under green house conditions (reference value: 0.25 +/- 0.041 g); assay type: functional
Meloidogyne incognita [5] = assay: Nematicidal activity against second juvenile stage of Meloidogyne incognita (root-knot nematode) infected pea plant assessed as root dry weight at 4 kg ai/ha applied to soil measured up to 14 days post planting under green house conditions (reference value: 0.25 +/- 0.041 g); assay type: functional
Meloidogyne incognita [6] = assay: Nematicidal activity against second juvenile stage of Meloidogyne incognita (root-knot nematode) infected pea plant assessed as emergence at 3 kg ai/ha applied to soil measured up to 14 days post planting under green house conditions (reference value: 75 +/- 13%); assay type: functional
Meloidogyne incognita [7] = assay: Nematicidal activity against second juvenile stage of Meloidogyne incognita (root-knot nematode) infected pea plant assessed as emergence at 2 kg ai/ha applied to soil measured up to 7 days post planting under green house conditions (reference value: 75 +/- 13%); assay type: functional
Meloidogyne incognita [8] = assay: Nematicidal activity against second juvenile stage of Meloidogyne incognita (root-knot nematode) assessed as mortality after 72 hr; assay type: functional
Meloidogyne incognita [9] = assay: Nematicidal activity against second juvenile stage of Meloidogyne incognita (root-knot nematode) infected pea plant assessed as reduction in root gall index at 3 kg ai/ha applied to soil measured up to 14 days post planting under green house conditions (reference value: 9.7 +/- 0.30%); assay type: functional
Meloidogyne incognita [10] = assay: Nematicidal activity against second juvenile stage of Meloidogyne incognita (root-knot nematode) infected pea plant assessed as root fresh weight at 4 kg ai/ha applied to soil measured up to 7 days post planting under green house conditions (reference value: 1.83 +/- 0.3 g); assay type: functional
Phaseolus lunatus [11] = assay: Phytotoxicity in Phaseolus lunatus (lima bean) plant assessed as plant dry weight at 2.56 kg ai/ha applied to soil measured up to 14 days under green house conditions (reference value: 1.20 +/- 0.21 g); assay type: organism-based; conditions: in vivo, other, 336 h
Phaseolus lunatus [12] = assay: Phytotoxicity in Phaseolus lunatus (lima bean) plant assessed as plant dry weight at 1.56 kg ai/ha applied to soil measured up to 7 days under green house conditions (reference value: 1.20 +/- 0.21 g); assay type: organism-based; conditions: in vivo, other, 168 h
Meloidogyne incognita [13] = assay: Nematicidal activity against second juvenile stage of Meloidogyne incognita (root-knot nematode) infected pea plant assessed as root fresh weight at 4 kg ai/ha applied to soil measured up to 14 days post planting under green house conditions (reference value: 1.83 +/- 0.3 g); assay type: functional
Pisum sativum [14] = assay: Phytotoxicity in Pisum sativum (pea) assessed as root dry weight at 3 kg ai/ha applied to soil measured up to 14 days post planting at 27 degC under green house conditions (reference value: 0.33 +/- 0.075 g); assay type: organism-based; conditions: lathyrus oleraceus, in vivo, other, 336 h
Pisum sativum [15] = assay: Phytotoxicity in Pisum sativum (pea) assessed as plant fresh weight at 3 kg ai/ha applied to soil measured up to 7 days post planting at 19 degC (reference value: 9.4 +/- 0.54 g); assay type: organism-based; conditions: lathyrus oleraceus, in vivo, other, 168 h
Pisum sativum [16] = assay: Phytotoxicity in Pisum sativum (pea) assessed as plant fresh weight at 2 kg ai/ha applied to soil measured up to 7 days post planting at 19 degC (reference value: 9.4 +/- 0.54 g); assay type: organism-based; conditions: lathyrus oleraceus, in vivo, other, 168 h
Pisum sativum [17] = assay: Phytotoxicity in Pisum sativum (pea) assessed as plant fresh weight at 3 kg ai/ha applied to soil measured up to 7 days post planting at 27 degC under green house conditions (reference value: 3.9 +/- 0.83 g); assay type: organism-based; conditions: lathyrus oleraceus, in vivo, other, 168 h
Pisum sativum [18] = assay: Phytotoxicity in Pisum sativum (pea) assessed as plant height at 3 kg ai/ha applied to soil measured up to 7 days post planting at 19 degC (reference value: 6.2 +/- 0.6 cm); assay type: organism-based; conditions: lathyrus oleraceus, in vivo, other, 168 h
Pisum sativum [19] = assay: Phytotoxicity in Pisum sativum (pea) assessed as emergence at 2 kg ai/ha applied to soil measured up to 7 days post planting at 19 degC relative to untreated control; assay type: organism-based; conditions: lathyrus oleraceus, in vivo, other, 168 h
Pisum sativum [20] = assay: Phytotoxicity in Pisum sativum (pea) assessed as emergence at 4 kg ai/ha applied to soil measured up to 7 days post planting at 27 degC under green house conditions (reference value: 70 +/- 3.3%); assay type: organism-based; conditions: lathyrus oleraceus, in vivo, other, 168 h
Pisum sativum [21] = assay: Phytotoxicity in Pisum sativum (pea) assessed as emergence at 3 kg ai/ha applied to soil measured up to 7 days post planting at 27 degC under green house conditions (reference value: 70 +/- 3.3%); assay type: organism-based; conditions: lathyrus oleraceus, in vivo, other, 168 h
Meloidogyne incognita [22] = assay: Nematicidal activity against second juvenile stage of Meloidogyne incognita (root-knot nematode) infected lima bean plant assessed as root dry weight at 3 kg ai/ha applied to soil measured up to 14 days post planting under green house conditions (reference value: 0.5 +/- 0.052 g); assay type: functional
Meloidogyne incognita [23] = assay: Nematicidal activity against second juvenile stage of Meloidogyne incognita (root-knot nematode) infected lima bean plant assessed as reduction in root gall index at 3 kg ai/ha applied to soil measured up to 7 days post planting under green house conditions (reference value: 7 +/- 0.27%); assay type: functional
Meloidogyne incognita [24] = assay: Nematicidal activity against second juvenile stage of Meloidogyne incognita (root-knot nematode) infected lima bean plant assessed as reduction in root gall index at 3 kg ai/ha applied to soil measured up to 14 days post planting under green house conditions (reference value: 7 +/- 0.27%); assay type: functional
Meloidogyne incognita [25] = assay: Nematicidal activity against second juvenile stage of Meloidogyne incognita (root-knot nematode) infected lima bean plant assessed as emergence at 2 kg ai/ha applied to soil measured during planting under green house conditions (reference value: 83 +/- 5%); assay type: functional
Meloidogyne incognita [26] = assay: Nematicidal activity against second juvenile stage of Meloidogyne incognita (root-knot nematode) infected lima bean plant assessed as emergence at 2 kg ai/ha applied to soil measured up to 7 days post planting under green house conditions (reference value: 83 +/- 5%); assay type: functional
Meloidogyne incognita [27] = assay: Nematicidal activity against second juvenile stage of Meloidogyne incognita (root-knot nematode) infected lima bean plant assessed as emergence at 1 kg ai/ha applied to soil measured during planting under green house conditions (reference value: 83 +/- 5%); assay type: functional

CNC(=O)ON=C(C)SC [METHOMYL] was tested, and the LC90 (Aphis gossypii [1]) was 11 µg/mL (≈ 67.8 µM), the LC50 (Aphis gossypii [1]; Aphis gossypii, soil, 120 h) was 5 µg/mL (≈ 30.8 µM) and the Activity (Phaseolus lunatus [2]) was 0.35 g. The Activity (Solanum lycopersicum) was “Non-toxic”, the Activity (Gossypium hirsutum) was 100 µg/mL and the LC90 (Aphis gossypii [3]) was 54 µg/mL (≈ 333 µM). It also gave an LC50 (Aphis gossypii [3]; Aphis gossypii, foliar, 120 h) of 25 µg/mL (≈ 154 µM), an Activity (Meloidogyne incognita [4]) of 0.28 g and an Activity (Meloidogyne incognita [5]) of 0.31 g. It also gave an Activity (Meloidogyne incognita [6]) of 63%, an Activity (Meloidogyne incognita [7]) of 50% and an LC90 (Meloidogyne incognita [8]) of 9.8 µg/mL (≈ 60.4 µM). For the same compound, the LC50 (Meloidogyne incognita [8]; Meloidogyne incognita, Juvenile stage, 72 h) was 3.6 µg/mL (≈ 22.2 µM), the Root_galling_index (Meloidogyne incognita [9]) was 0% and the Activity (Meloidogyne incognita [10]) was 1.59 g. It also gave an Activity (Phaseolus lunatus [11]) of 1.25 g, an Activity (Phaseolus lunatus [12]) of 1.26 g and an Activity (Meloidogyne incognita [13]) of 1.36 g. For the same compound, the Activity (Pisum sativum [14]) was 0.27 g, the Activity (Pisum sativum [15]) was 9.4 g and the Activity (Pisum sativum [16]) was 11.6 g. The Activity (Pisum sativum [17]) was 3.3 g, the Activity (Pisum sativum [18]) was 6.9 cm and the Activity (Pisum sativum [19]) was 93%. For the same compound, the Activity (Pisum sativum [20]) was 60%, the Activity (Pisum sativum [21]) was 70% and the Activity (Meloidogyne incognita [22]) was 0.38 g. It also gave a Root_galling_index (Meloidogyne incognita [23]) of 0%, a Root_galling_index (Meloidogyne incognita [24]) of 0% and an Activity (Meloidogyne incognita [25]) of 100%. The Activity (Meloidogyne incognita [26]) was 100% and the Activity (Meloidogyne incognita [27]) was 100%.
